Laboratory results from patent US12410208B2, “(2-acetamidyl)thio-beta-D-galactopyranoside derivatives” (Idorsia Pharmaceuticals Ltd, priority 2020, dated 2025).

What was measured:
[1] = target: human Gal-1 (hGal-1) (Homo sapiens, UniProt P09382); experiment: Competitive binding assay: biotinylated hGal-1 binding to microplate-adsorbed asialofetuin (ASF), spectrophotometric; details: hGal-1 binding to asialofetuin; Table 15; R and S epimers of selected Examples also listed; read-out: IC50 (Galectin-1 inhibition)
Chain of human Gal-1 (hGal-1) (P09382 whole entry): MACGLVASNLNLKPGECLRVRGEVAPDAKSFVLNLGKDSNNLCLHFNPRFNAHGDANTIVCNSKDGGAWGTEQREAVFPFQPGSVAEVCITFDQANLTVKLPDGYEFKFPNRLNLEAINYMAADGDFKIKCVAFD
Method in brief: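 Biotinylated hGal-1 (300-1000 ng/mL) incubated with compound on asialofetuin-coated plates 3 hours at 4 °C, washed, then streptavidin-peroxidase (80 ng/mL) 1 hour at 4 °C. ABTS substrate read spectrophotometrically; IC50 reported as mean of several measurements.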

[2] = target: biotinylated human Gal-3 (hGal-3) (Homo sapiens, UniProt P17931); experiment: Competitive binding assay: biotinylated hGal-3 binding to microplate-adsorbed asialofetuin (ASF), spectrophotometric; details: Gal-3 inhibition, Table 5; read-out: IC50
Chain of biotinylated human Gal-3 (hGal-3) (P17931 whole entry): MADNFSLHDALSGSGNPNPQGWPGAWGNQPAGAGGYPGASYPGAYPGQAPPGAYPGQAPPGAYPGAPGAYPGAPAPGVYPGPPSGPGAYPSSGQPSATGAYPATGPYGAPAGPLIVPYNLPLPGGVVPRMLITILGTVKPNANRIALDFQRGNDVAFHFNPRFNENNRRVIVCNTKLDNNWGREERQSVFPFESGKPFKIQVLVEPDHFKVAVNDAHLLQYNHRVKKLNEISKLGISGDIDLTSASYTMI
Method in brief: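 Competitive binding of biotinylated hGal-3 to plate-adsorbed asialofetuin was measured with serially diluted compounds over 3 h at 4° C. Bound protein was detected with streptavidin-peroxidase and ABTS substrate by absorbance. IC50 values are means of several measurements.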

`CCN(C)C(=O)[C@@H](S[C@@H]1O[C@H](CO)[C@H](O)[C@H](n2cc(-c3cc(F)c(F)c(F)c3)nn2)[C@H]1O)C1(O)CCC1` [Example 2.34.203S., (S)-2-(((2S,3R,4S,5R,6R)-3,5-Dihydroxy-6-(hydroxymethyl)-4-(4-(3,4,5-trifluorophenyl)-1H-1,2,3-triazol-1-yl)tetrahydro-2H-pyran-2-yl)thio)-N-ethyl-2-(1-hydroxycyclobutyl)-N-methylacetamide] was tested. Which IC50 [1] did it give?
The IC50 was 170 nM.

And the IC50 [2]?
Its IC50 is 120 nM.

`O=C(C(S[C@@H]1O[C@H](CO)[C@H](O)[C@H](n2cc(-c3cc(F)c(F)c(F)c3)nn2)[C@H]1O)C1(O)CCC1)N1CCC1` (stereo partly drawn) [Example 2.34.206., 1-(Azetidin-1-yl)-2-(((2S,3R,4S,5R,6R)-3,5-dihydroxy-6-(hydroxymethyl)-4-(4-(3,4,5-trifluorophenyl)-1H-1,2,3-triazol-1-yl)tetrahydro-2H-pyran-2-yl)thio)-2-(1-hydroxycyclobutyl)ethan-1-one] was tested. Which IC50 [1] did it give?
Its IC50 is 2710 nM.

What about the IC50 [2] of the same compound?
Its IC50 is 1200 nM.

With `O=C([C@H](S[C@@H]1O[C@H](CO)[C@H](O)[C@H](n2cc(-c3cc(F)c(F)c(F)c3)nn2)[C@H]1O)C1(O)CCC1)N1CCC1` [Example 2.34.206R., (R)-1-(Azetidin-1-yl)-2-(((2S,3R,4S,5R,6R)-3,5-dihydroxy-6-(hydroxymethyl)-4-(4-(3,4,5-trifluorophenyl)-1H-1,2,3-triazol-1-yl)tetrahydro-2H-pyran-2-yl)thio)-2-(1-hydroxycyclobutyl)ethan-1-one] as the compound, how does the IC50 [1] read?
The IC50 was 6910 nM.

What about the IC50 [2] of the same compound?
Its IC50 is 1800 nM.

Which results are given for `O=C([C@@H](S[C@@H]1O[C@H](CO)[C@H](O)[C@H](n2cc(-c3cc(F)c(F)c(F)c3)nn2)[C@H]1O)C1(O)CCC1)N1CCC1` [Example 2.34.206S., (S)-1-(Azetidin-1-yl)-2-(((2S,3R,4S,5R,6R)-3,5-dihydroxy-6-(hydroxymethyl)-4-(4-(3,4,5-trifluorophenyl)-1H-1,2,3-triazol-1-yl)tetrahydro-2H-pyran-2-yl)thio)-2-(1-hydroxycyclobutyl)ethan-1-one]?
IC50 [1]: 620 nM; IC50 [2]: 340 nM

For `O=C(C(S[C@@H]1O[C@H](CO)[C@H](O)[C@H](n2cc(-c3cc(F)c(F)c(F)c3)nn2)[C@H]1O)C1(O)CCC1)N1CCCCC1` (stereo partly drawn) [Example 2.34.208., 2-(((2S,3R,4S,5R,6R)-3,5-Dihydroxy-6-(hydroxymethyl)-4-(4-(3,4,5-trifluorophenyl)-1H-1,2,3-triazol-1-yl)tetrahydro-2H-pyran-2-yl)thio)-2-(1-hydroxycyclobutyl)-1-(piperidin-1-yl)ethan-1-one], which IC50 [1] is on record?
The IC50 was 520 nM.

What about the IC50 [2] of the same compound?
The IC50 was 380 nM.

Which results are given for `O=C([C@H](S[C@@H]1O[C@H](CO)[C@H](O)[C@H](n2cc(-c3cc(F)c(F)c(F)c3)nn2)[C@H]1O)C1(O)CCC1)N1CCCCC1` [Example 2.34.208R., (R)-2-(((2S,3R,4S,5R,6R)-3,5-Dihydroxy-6-(hydroxymethyl)-4-(4-(3,4,5-trifluorophenyl)-1H-1,2,3-triazol-1-yl)tetrahydro-2H-pyran-2-yl)thio)-2-(1-hydroxycyclobutyl)-1-(piperidin-1-yl)ethan-1-one]?
IC50 [1]: 11500 nM; IC50 [2]: 3240 nM

What does the source list for `O=C([C@@H](S[C@@H]1O[C@H](CO)[C@H](O)[C@H](n2cc(-c3cc(F)c(F)c(F)c3)nn2)[C@H]1O)C1(O)CCC1)N1CCCCC1` [Example 2.34.208S., (S)-2-(((2S,3R,4S,5R,6R)-3,5-Dihydroxy-6-(hydroxymethyl)-4-(4-(3,4,5-trifluorophenyl)-1H-1,2,3-triazol-1-yl)tetrahydro-2H-pyran-2-yl)thio)-2-(1-hydroxycyclobutyl)-1-(piperidin-1-yl)ethan-1-one]?
IC50 [1]: 140 nM; IC50 [2]: 140 nM

Which results are given for `CN(CC1CC1)C(=O)C(S[C@@H]1O[C@H](CO)[C@H](O)[C@H](n2cc(-c3cc(F)c(F)c(F)c3)nn2)[C@H]1O)C1(O)CCC1` (stereo partly drawn) [Example 2.34.218., N-(Cyclopropylmethyl)-2-(((2S,3R,4S,5R,6R)-3,5-dihydroxy-6-(hydroxymethyl)-4-(4-(3,4,5-trifluorophenyl)-1H-1,2,3-triazol-1-yl)tetrahydro-2H-pyran-2-yl)thio)-2-(1-hydroxycyclobutyl)-N-methylacetamide]?
IC50 [1]: 220 nM; IC50 [2]: 310 nM

Which IC50 [1] does the source give for `CN(CC1CC1)C(=O)[C@H](S[C@@H]1O[C@H](CO)[C@H](O)[C@H](n2cc(-c3cc(F)c(F)c(F)c3)nn2)[C@H]1O)C1(O)CCC1` [Example 2.34.218R., (R)-N-(Cyclopropylmethyl)-2-(((2S,3R,4S,5R,6R)-3,5-dihydroxy-6-(hydroxymethyl)-4-(4-(3,4,5-trifluorophenyl)-1H-1,2,3-triazol-1-yl)tetrahydro-2H-pyran-2-yl)thio)-2-(1-hydroxycyclobutyl)-N-methylacetamide] here?
Its IC50 is 20900 nM.

What about the IC50 [2] of the same compound?
Its IC50 is 6080 nM.

Which IC50 [1] does the source give for `CN(CC1CC1)C(=O)[C@@H](S[C@@H]1O[C@H](CO)[C@H](O)[C@H](n2cc(-c3cc(F)c(F)c(F)c3)nn2)[C@H]1O)C1(O)CCC1` [Example 2.34.218S., (S)-N-(Cyclopropylmethyl)-2-(((2S,3R,4S,5R,6R)-3,5-dihydroxy-6-(hydroxymethyl)-4-(4-(3,4,5-trifluorophenyl)-1H-1,2,3-triazol-1-yl)tetrahydro-2H-pyran-2-yl)thio)-2-(1-hydroxycyclobutyl)-N-methylacetamide] here?
The IC50 was 70 nM.

And the IC50 [2]?
Its IC50 is 60 nM.

What does the source list for `CN(CC(F)(F)F)C(=O)C(S[C@@H]1O[C@H](CO)[C@H](O)[C@H](n2cc(-c3cc(F)c(F)c(F)c3)nn2)[C@H]1O)C1(O)CCC1` (stereo partly drawn) [Example 2.34.219., 2-(((2S,3R,4S,5R,6R)-3,5-Dihydroxy-6-(hydroxymethyl)-4-(4-(3,4,5-trifluorophenyl)-1H-1,2,3-triazol-1-yl)tetrahydro-2H-pyran-2-yl)thio)-2-(1-hydroxycyclobutyl)-N-methyl-N-(2,2,2-trifluoroethyl)acetamide]?
IC50 [1]: 640 nM; IC50 [2]: 260 nM

How did the IC50 [1] turn out when `CN(CC(F)(F)F)C(=O)[C@H](S[C@@H]1O[C@H](CO)[C@H](O)[C@H](n2cc(-c3cc(F)c(F)c(F)c3)nn2)[C@H]1O)C1(O)CCC1` [Example 2.34.219R., (R)-2-(((2S,3R,4S,5R,6R)-3,5-Dihydroxy-6-(hydroxymethyl)-4-(4-(3,4,5-trifluorophenyl)-1H-1,2,3-triazol-1-yl)tetrahydro-2H-pyran-2-yl)thio)-2-(1-hydroxycyclobutyl)-N-methyl-N-(2,2,2-trifluoroethyl)acetamide] was run?
The IC50 was 33600 nM.

What about the IC50 [2] of the same compound?
Its IC50 is 7840 nM.

How did the IC50 [1] turn out when `CN(CC(F)(F)F)C(=O)[C@@H](S[C@@H]1O[C@H](CO)[C@H](O)[C@H](n2cc(-c3cc(F)c(F)c(F)c3)nn2)[C@H]1O)C1(O)CCC1` [Example 2.34.219S., (S)-2-(((2S,3R,4S,5R,6R)-3,5-Dihydroxy-6-(hydroxymethyl)-4-(4-(3,4,5-trifluorophenyl)-1H-1,2,3-triazol-1-yl)tetrahydro-2H-pyran-2-yl)thio)-2-(1-hydroxycyclobutyl)-N-methyl-N-(2,2,2-trifluoroethyl)acetamide] was run?
The IC50 was 120 nM.

And the IC50 [2]?
The IC50 was 110 nM.

Which results are given for `CN(CC(C)(C)F)C(=O)C(S[C@@H]1O[C@H](CO)[C@H](O)[C@H](n2cc(-c3cc(F)c(F)c(F)c3)nn2)[C@H]1O)C1(O)CCC1` (stereo partly drawn) [Example 2.34.222., 2-(((2S,3R,4S,5R,6R)-3,5-Dihydroxy-6-(hydroxymethyl)-4-(4-(3,4,5-trifluorophenyl)-1H-1,2,3-triazol-1-yl)tetrahydro-2H-pyran-2-yl)thio)-N-(2-fluoro-2-methylpropyl)-2-(1-hydroxycyclobutyl)-N-methylacetamide]?
IC50 [1]: 220 nM; IC50 [2]: 410 nM
